One data set deals with HHV-2 TK-. Put plainly: Viral CPE inhibition assay, HHV-2 TK- (mean of the two TK- isolates). It counts as cell-based. The source says:
(§1) Viral CPE inhibition assay to determine KPB-100 anti-HHV-2 TK-mutant activity: HHV-2 thymidine kinase mutant (TK-minus; TK-), CI-10161 was a patient isolate obtained on 11 November 1986 from Bruce Ronnie at Burrows Welcome. It was amplified one time in MA-104 cells. HHV-2 TK- CI-1253 (18 February 1991) was a patient isolate obtained on 05 February 1992 from Bruce Ronnie at the department of medicine at the University of British Colombia and amplified one time in Vero cells. HHV-2 (E194) was the standard wild-type E194 strain from the USU archives. KPB-100 was suspended in water (100 μg/mL). It was diluted 1/2 in minimum essential medium (MEM) solution, then diluted down further in half-log dilutions in MEM solution with 50 μg/mL gentamicin and 2% foetal bovine serum. Each dilution was added to 5 wells of a 96-well plate with an overnight monolayer of 80–100% confluent Vero-76 cells. Acyclovir and cidofovir were tested in parallel as controls. Three wells of each dilution were then infected with virus, and two wells remained uninfected as toxicity controls. The MOI was approximated 0.001 for CI-1253, 0.002 for CI-10161 and 0.017 for E194. When untreated virus control wells reached near complete cytopathic effect (CPE), which was day-four post-infection in each case, plates were stained with neutral red dye (which measures cell viability, thus can be used for quantifying the vitality of both virus-infected and uninfected, drug-treated cell cultures) for approximately 2 h, then supernatant dye was removed and the incorporated dye was extracted in 50:50 Sorensen citrate buffer/ethanol, then read on a spectrophotometer at 540 nm. Optical density (OD) values were normalized based on cell and virus controls, then IC50, 50% cytotoxic concentration (CC50) values, and Selectivity Index (SI) were calculated by regression analysis.

For a further data set, the system named is HHV-2 TK- 10161. The data set can be described thus: Viral CPE inhibition assay (neutral red), HHV-2 TK- CI-10161. Format: cell-based. The following applies: for IC50: 96 h, HHV-2 TK- 10161, Vero-76 cells, neutral red, day 4 post-infection; for SI (Selectivity Index CC50/IC50): HHV-2 TK- 10161.
From the text: as §1

Data set [1] can be described thus: Cytotoxicity in uninfected cultures (neutral red) run with the CPE inhibition assay. Format: cell-based. The following applies: African green monkey, uninfected Vero-76 cells, run in parallel with each virus, read-out: CC50 (50% cytotoxic concentration of compound in uninfected cultures).
From the text: as §1

The next data set relates to Vero-76 cells. Particulars: African green monkey.
The next data set concerns HHV-1 (v2424). The data set can be described thus: HHV-1 virus yield reduction (VYR) assay. It counts as cell-based. The following applies: Vero 76, read-out: IC90 (concentration reducing virus yield by 1 log10 or 90%).
The next data set concerns VACV (WR). Put plainly: microbe, parasite or virus in culture. Format: cell-based. The following applies: Orthopoxvirus vaccinia, Vero 76, 72 h.
The next data set concerns HHV-2 E194. Put plainly: Viral CPE inhibition assay (neutral red), HHV-2 E194 wild type. Format: cell-based. Particulars: for IC50: 96 h, HHV-2 E194 (WT), Vero-76 cells, neutral red, day 4 post-infection; for SI (Selectivity Index CC50/IC50): HHV-2 E194.
From the text: as §1

The next data set has as its system C1008 cells. The data set can be described thus: Cytotoxicity measured by CPE in plaque reduction. Particulars: 25 μg/mL.
The test system of data set [2] is HHV-2, strain G (ATCC VR-734). Put plainly: Standard plaque reduction assay against HHV-2 WT. It counts as cell-based. (In a plaque reduction assay, fewer plaques than in the control indicate reduced infectivity or spread.)
In data set [3] the test system is VACV WR-GFP virus (VV.NP-S-EGFP). Put plainly: microbe, parasite or virus in culture. It counts as cell-based, Vaccinia virus. Particulars: for IC50: HeLa, 24 h, read-out: IC50 virus spread inhibition.
The subject of a further data set is HHV-2 TK- 1253. The data set can be described thus: Viral CPE inhibition assay (neutral red), HHV-2 TK- CI-1253. It counts as cell-based. The following applies: for IC50: 96 h, HHV-2 TK- 1253, Vero-76 cells, neutral red, day 4 post-infection; for SI (Selectivity Index CC50/IC50): HHV-2 TK- 1253.
From the text: as §1

The test system of the next data set is VACV WR-GFP. It counts as cell-based, Vaccinia virus.
Where [4] appears, read: Vero 76, mean over TK- isolates 1253 and 10161, CPE inhibition, Vero-76 cells, read-out: mean IC50 against HHV-2 TK-.

Data on 4 molecules can be found in publication PMC6130675 (Pharmaceutical Biology, 2017).

A word on the IC50: it is the concentration that inhibits the measured activity by half. A word on the inhibition: it is the percentage by which the read-out fell short of the control.

Converted amounts (≈) assume the structure as drawn. Read-outs that look alike come from different tables or passages of the source.

As to `COc1cc([C@@H]2c3cc(OC)c(OC)cc3C[C@H](CO)[C@H]2CO[C@@H]2OC[C@@H](O)[C@H](O)[C@H]2O)ccc1O` [KPB-100, scaphopetalone], the 50% inhibitory concentration (IC50) with HHV-2 TK- (Vero 76, read-out: mean IC50 against HHV-2 TK-, mean over TK- isolates 1253 and 10161, CPE inhibition, Vero-76 cells) came to 4.5 µg/mL (≈ 8.88 µM); with HHV-2 TK- 10161, 4.5 µg/mL (≈ 8.88 µM); in the data set on VACV (WR) it was 3.1 µg/mL (≈ 6.12 µM); in the data set on HHV-2 E194, 5.4 µg/mL (≈ 10.7 µM); in [2] it was 2.5 µg/mL (≈ 4.94 µM); in [3] (Orthopoxvirus vaccinia) it was 1.63 µg/mL (≈ 3.22 µM). The molecule also had an IC50 in the data set with HHV-2 TK- 1253 of 4.6 µg/mL (≈ 9.08 µM). Also, the “mean IC50 against HHV-2 TK-” value with HHV-2 TK- (mean over TK- isolates 1253 and 10161, CPE inhibition, Vero-76 cells) worked out at 4.55 µg/mL. The results for the “SI (Selectivity Index CC50/IC50)” value with HHV-2 TK- 10161, in the data set with HHV-2 E194 and in the data set on HHV-2 TK- 1253 were >5.6, >4.6 and >5.4, respectively. Besides, in [1], the CC50 at 4 days was > 25 µg/mL. Besides, the toxicity estimated visually in the data set on Vero-76 cells is on record as 20%. The IC90 in the data set with HHV-1 (v2424) was found to be 3 µg/mL (≈ 5.92 µM). Further, the “cytotoxicity (cytopathic effect)” value with C1008 cells is on record as < 20%. Besides, the inhibition at 4 µg/mL in data set [3] (Orthopoxvirus vaccinia, 4 μg/mL, read-out: inhibition of virus spread) was ~100%. For the same molecule, the “anti-VACV activity in virus yield inhibition assay (in words)” value in the data set on VACV WR-GFP is listed as “exhibited anti-VACV activities”.

With `COc1cc(O)cc(O[C@@H]2O[C@H](COC(=O)c3cc(OC)c(O)c(OC)c3)[C@@H](O)[C@H](O)[C@H]2O)c1` [KPB-200], the half-inhibitory concentration (IC50) is 7.4 µg/mL (≈ 15.3 µM) in the data set on VACV (WR), 2.9 µg/mL (≈ 6.01 µM) in data set [2] and 13.2 µg/mL (≈ 27.4 µM) in [3] (Orthopoxvirus vaccinia). For the same molecule, the “cytotoxicity (cytopathic effect)” value in the data set with C1008 cells is < 20%. The “IC50 virus spread inhibition” value in data set [3] came to 13.19 µg/mL (≈ 27.3 µM). For the same molecule, the “anti-VACV activity in virus yield inhibition assay (in words)” value in the data set on VACV WR-GFP is on record as “exhibited anti-VACV activities”.

As for `Nc1nc2c(ncn2COCCO)c(=O)[nH]1` [Acyclovir, acyclovir], the IC50 is 12.2 µg/mL (≈ 54.2 µM) in the data set on HHV-2 TK- (setting [4]), 15 µg/mL (≈ 66.6 µM) in the data set on HHV-2 TK- 10161, 0.49 µg/mL (≈ 2.18 µM) in the data set on HHV-2 E194 and 9.3 µg/mL (≈ 41.3 µM) with HHV-2 TK- 1253. In addition, the “SI (Selectivity Index CC50/IC50)” value was >6.7 in the data set on HHV-2 TK- 10161, >204 in the data set with HHV-2 E194 and >11 in the data set with HHV-2 TK- 1253. The CC50 at 4 days in [1] was > 100 µg/mL.

Take `Nc1ccn(C[C@@H](CO)OCP(=O)(O)O)c(=O)n1` [Cidofovir, cidofovir]: the IC50 turned out to be 0.71 µg/mL (≈ 2.54 µM) in the data set with HHV-2 TK- (setting [4]); 1.2 µg/mL (≈ 4.3 µM) in the data set with HHV-2 TK- 10161; 9.7 µg/mL (≈ 34.7 µM) in the data set with VACV (WR); 4.3 µg/mL (≈ 15.4 µM) with HHV-2 E194; 0.22 µg/mL (≈ 0.788 µM) with HHV-2 TK- 1253. The figures for the “SI (Selectivity Index CC50/IC50)” value in the data set with HHV-2 TK- 10161, in the data set on HHV-2 E194 and with HHV-2 TK- 1253 were >83, >23 and >450, respectively. Also, the CC50 at 4 days in data set [1] was > 100 µg/mL.
